In brackets after ≈: the same amount, converted by molar mass.
Columns and labels:
C. albicans CA3 = test: Microbroth dilution MIC80; type: cell-based; settings: Candida albicans, CA3
Description: (§1) Compound library. The thiosemicarbazone derivatives Triapine and COTI-2 were purchased from Med Chem Express (MCE). The other 87 thiosemicarbazones used in this study were previously synthesized by our collaborators (1, 2). Their structures are shown in Table 1 and Table S1 to help the reader clearly understand the relationship between structure and activity.
(§2) Strains and culture conditions. Clinically derived C. albicans isolates, including G5, F5, and Gu5, were kindly provided by Professor Joachim Morschhäuser of the University of Würzburg. Other clinical C. albicans isolates were kindly donated by Professor Qingguo Qi of Shandong University and Qianfoshan Hospital of Shandong Province Other Candida strains were obtained from Jinan Central Hospital.
(§3) The zap1 mutant and its complemented strain were kindly provided by Professor Aaron P. Mitchell of Carnegie Mellon University (3). The C. neoformans strains used in this study was kindly donated by Professor Guojian Liao of Southwest University and A. fumigatus strain used in this study was provided by Professor Ling Lu of Nanjing Normal University. Before in vitro and in vivo experiments, all C. albicans strains were grown on YPD agar plates. After culturing at 30°C for 24 h, colonies of each strain were cultured in liquid YPD medium at 30°C with continuous shaking […]
(§4) Antifungal susceptibility testing. To determine in vitro antifungal activities, the microbroth dilution method was carried out in RPMI1640 medium according to the guidelines of the Clinical and Laboratory Standards Institute (4, 5). The initial concentration in RPMI1640 medium was 1 × 10^3 CFU/mL for the C. albicans and C. neoformans suspensions but 1 × 10^4 CFU/mL for A. fumigatus. The range of final drug concentrations was 0.0156–64 μg/mL. The plates were incubated at35°C for 24 […]
(§5) h (for C. albicans, C. krusei, C. tropicalis, C. parapsilosis) or 48 h (for C. neoformans, A. fumigatus). The MIC was determined based on visible growth inhibition compared with the control. All experiments were performed in duplicate. […]

C. albicans 24g = test: Microbroth dilution MIC80; type: cell-based; settings: Candida albicans, 24G
Description: as §1, §2, §3, §4, §5

C. albicans 11f = test: Microbroth dilution MIC80; type: cell-based; settings: Candida albicans, 11F
Description: as §1, §2, §3, §4, §5

C. tropicalis CT2 = test: Microbroth dilution MIC80; type: cell-based; settings: Candida tropicalis, CT2
Description: as §1, §2, §3, §4, §5

C. albicans F5 = test: Microbroth dilution MIC80; type: cell-based; settings: Candida albicans, F5
Description: as §1, §2, §3, §4, §5

C. albicans 28D = test: Microbroth dilution MIC80; type: cell-based; settings: Candida albicans, 28D
Description: as §1, §2, §3, §4, §5

C. albicans YEM15 = test: Microbroth dilution MIC80; type: cell-based; settings: Candida albicans, YEM15
Description: as §1, §2, §3, §4, §5

C. albicans CA4 = test: Microbroth dilution MIC80; type: cell-based; settings: Candida albicans, CA4
Description: as §1, §2, §3, §4, §5

CAT = test: Catalase (CAT) activity in treated cells; type: cell-based; settings: 0.5 μg/mL or above, 6 h
Method: Determination of SOD activity. SOD activity was measured using the Superoxide Dismutase Activity Assay Kit (Njjcbio, Nanjing, China) following the manufacturer's instructions. An overnight culture of C. albicans SC5314 was adjusted to 1 × 10^7 cells/mL with RPMI1640 medium and treated with 19ak at a final concentration of 0, 0.125, 0.25, 0.5, or 1 μg/mL for 6 h. After collection by centrifugation, the cells were broken by glass beads in extraction buffer and centrifuged at 4°C. The absorbance of the supernatant of each sample was measured with a microplate reader at450 nm.
Determination of catalase (CAT) activity. CAT activity was measured by using a Catalase Assay Kit (Solarbio, Beijing, China) following the manufacturer's instructions. An overnight culture of C. albicans SC5314 was adjusted to 1 × 10^6 cells/mL with RPMI1640 medium and treated as described above for SOD activity.
The decomposition of H2O2 is directly accompanied by a decrease in absorbance at 240 nm, and the difference in absorbance per unit time (ΔA240) is a measure of […]
Quantitative real-time polymerase chain reaction (qPCR) analysis. C. albicans SC5314 cells (1 × 10^6 cells/mL) were incubated with or without 19ak (0.5,2 μg/mL) in RPMI1640 medium for 6 h. Total RNA was extracted using the hot phenol method, and the RNA quality was analyzed using a spectrophotometer (Eppendorf, Hamburg, Germany). […]

[1] = tested on: mammalian cells of 16HBE or HepG2; test: CCK-8 reduction assay, mitochondrial dehydrogenase activity; type: cell-based, human; settings: 5 μg/mL, 12 h or 48 h
Method: the fluorescent complex […] (CTF) is commonly used to indicate the intensity of microbial respiration. C. albicans SC5314 treated with 19ak was stained with 1 mM CTC for 30 min, followed by flow cytometry analysis of respiratory activity based on fluorescence intensity. Images of cells were obtained using a fluorescence microscope (IX71, Olympus, Tokyo, Japan). The Cell Counting Kit-8 (CCK-8) assay is used to measure the dehydrogenase activity in the mitochondria of C. albicans or mammalian cells. C. albicans SC5314 (5 × 10^6 cells/mL in RPMI1640 medium) were treated with different concentrations of 19ak in 96-well plates at 30°C for 12 h or 48 h. 10 μL of CCK-8 solution was added to each well. After an additional 2 h of incubation, OD450 in each well was detected with a microplate reader. […]
Mitochondrial isolation and detection of mitochondrial respiratory chain complex activity. […] The activities of mitochondrial respiratory chain complexes I-IV were determined by using the Micro Mitochondrial Respiratory Chain Complex Activity Assay Kit (Solarbio, Beijing, China). The concentration of protein was determined using the BCA Protein Assay Kit (Beyotime, Haimen, China).
Mitochondrial complex activity was expressed as nmol/min/mg protein. […]

C. albicans Gu5 = test: microbe, parasite or virus in culture; type: cell-based; settings: Candida albicans, GU5
Description: as §1, §2, §3, §4, §5

C. albicans G5 = test: microbe, parasite or virus in culture; type: cell-based; settings: Candida albicans, G5
Description: as §1, §2, §3, §4, §5

With `C/C(=N\NC(=S)N(C)C)c1ccccn1` [Compound 19ak] the MIC80 (C. albicans CA3) was 0.125 µg/mL (≈ 0.562 µM), the MIC80 (C. albicans 24g) was 0.25 µg/mL (≈ 1.12 µM) and the MIC80 (C. albicans 11f) was 1 µg/mL (≈ 4.5 µM). It also gave an MIC80 (C. tropicalis CT2) of 0.5 µg/mL (≈ 2.25 µM), an MIC80 (C. albicans F5) of 0.5 µg/mL (≈ 2.25 µM) and an MIC80 (C. albicans 28D) of 0.125 µg/mL (≈ 0.562 µM). For the same compound, the MIC80 (C. albicans YEM15) was 0.25 µg/mL (≈ 1.12 µM), the MIC80 (C. albicans CA4) was 0.125 µg/mL (≈ 0.562 µM) and the CAT activity (CAT) was “increased”. For the same compound, the “Mitochondrial dehydrogenase activity of mammalian cells (CCK-8)” value [1] was “minimal inhibitory effect”, the MIC80 (C. albicans Gu5) was 0.25 µg/mL (≈ 1.12 µM) and the MIC80 (C. albicans G5) was 1 µg/mL (≈ 4.5 µM).

From article PMC9241695, “Selective Metal Chelation by a Thiosemicarbazone Derivative Interferes with Mitochondrial Respiration and Ribosome Biogenesis in Candida albicans” (Microbiology Spectrum, 2022)
